Results taken from ChEMBL document CHEMBL1201862, “PubChem BioAssay data set” (2004).
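Step 1: Grow cells in 96-well plates. Step 2: Expose to compound for 48 hours at 5 concentrations. Step 3: Interpolate endpoints linearly; if unreached, use highest concentration. At the GI50, growth is halved.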 Active and inactive are the calls of the source. Rule as the data show it: active = GI50 up to about 1.1 µM and inactive = higher.

Columns and labels:
Experiment in all cases: DTP human tumour cell line panel, 48 h
SN12C = tested on: SN12C
COLO 205 = tested on: COLO 205
786-0 = tested on: 786-0
T47D = tested on: T47D
OVCAR-4 = tested on: OVCAR-4
OVCAR-3 = tested on: OVCAR-3
U-251 = tested on: U-251
SK-MEL-28 = tested on: SK-MEL-28
HT-29 = tested on: HT-29
K562 = tested on: K562
CAKI-1 = tested on: CAKI-1
IGROV-1 = tested on: IGROV-1
KM12 = tested on: KM12
A549 = tested on: A549
SNB-19 = tested on: SNB-19
SK-MEL-2 = tested on: SK-MEL-2
PC-3 = tested on: PC-3
SF-268 = tested on: SF-268
LOX IMVI = tested on: LOX IMVI
OVCAR-8 = tested on: OVCAR-8

Measured: GI50

COC(=O)C1=C(OC(=O)/C(=C/c2ccccc2)c2ccc(Cl)cc2Cl)C(C(=O)OC)[C@@]2(O)[C@@H](C(=O)OC)[C@H](C)C[C@@H]1[C@@H]2C(=O)OC (stereo not given in full)
inactive: SN12C > 100 µM | COLO 205 > 100 µM | 786-0 > 100 µM | T47D > 100 µM | OVCAR-4 > 100 µM | OVCAR-3 > 100 µM | U-251 > 100 µM | SK-MEL-28 > 100 µM | HT-29 > 100 µM | K562 > 100 µM | CAKI-1 > 100 µM | IGROV-1 > 100 µM | KM12 > 100 µM | A549 > 100 µM | SNB-19 > 100 µM | SK-MEL-2 > 100 µM | PC-3 > 100 µM | SF-268 > 100 µM | LOX IMVI > 100 µM | OVCAR-8 > 100 µM

CCOC(=O)C1C(=O)CC(O)(c2ccccc2)C(C(=O)OCC)C1c1ccc(OC)cc1 (stereo not given)
inactive: SN12C 40.7 µM | COLO 205 12.8 µM | 786-0 22.6 µM | T47D 42.2 µM | OVCAR-4 28.6 µM | OVCAR-3 12.4 µM | U-251 16 µM | SK-MEL-28 28.8 µM | HT-29 6.82 µM | K562 5.27 µM | CAKI-1 44.8 µM | IGROV-1 20 µM | KM12 6.31 µM | A549 47 µM | SNB-19 22.5 µM | SK-MEL-2 20.1 µM | PC-3 16.4 µM | SF-268 30.1 µM | LOX IMVI 18.7 µM | OVCAR-8 33.4 µM

COc1ccccc1/N=N/C(=N/NC(=O)c1ccc(C)cc1)c1ccc(N(CCC#N)CCC#N)cc1OC
inactive: SN12C 28.3 µM | COLO 205 16 µM | 786-0 31.7 µM | T47D 18.7 µM | OVCAR-4 31.9 µM | OVCAR-3 29 µM | U-251 32.5 µM | SK-MEL-28 36 µM | HT-29 33.1 µM | K562 31.3 µM | CAKI-1 52.7 µM | IGROV-1 37.6 µM | KM12 26.8 µM | A549 33.5 µM | SNB-19 30.8 µM | SK-MEL-2 19.8 µM | PC-3 26.5 µM | SF-268 30.5 µM | LOX IMVI 33.4 µM | OVCAR-8 32.5 µM

Cc1ccc(S(=O)(=O)N/N=C/C(=C/c2ccc(Cl)cc2)CC(/C=N/NS(=O)(=O)c2ccc(C)cc2)=C\c2ccc(Cl)cc2)cc1
inactive: SN12C 7.08 µM | COLO 205 5 µM | 786-0 2.19 µM | T47D 4.78 µM | OVCAR-4 5.42 µM | OVCAR-3 3.07 µM | U-251 4.78 µM | SK-MEL-28 5.52 µM | HT-29 5.51 µM | K562 2.86 µM | CAKI-1 5.37 µM | IGROV-1 5.81 µM | KM12 7.87 µM | A549 17.1 µM | SNB-19 8.77 µM | SK-MEL-2 7.76 µM | PC-3 4.02 µM | SF-268 5.06 µM | LOX IMVI 2.1 µM | OVCAR-8 2.63 µM

Cc1cc(S(=O)(=O)Nc2nc(N)nc(N(C)C)n2)c(SCC(=O)O)cc1Cl
inactive: SN12C > 10 µM | COLO 205 > 10 µM | 786-0 > 10 µM | T47D > 10 µM | OVCAR-4 > 10 µM | OVCAR-3 > 10 µM | U-251 > 10 µM | SK-MEL-28 > 10 µM | HT-29 > 10 µM | K562 > 10 µM | CAKI-1 > 10 µM | IGROV-1 > 10 µM | KM12 > 10 µM | A549 > 10 µM | SNB-19 > 10 µM | SK-MEL-2 > 10 µM | PC-3 > 10 µM | SF-268 > 10 µM | LOX IMVI > 10 µM | OVCAR-8 > 10 µM
